Laboratory results as given in patent US20250304923A1, “Novel HIV-1 Variants And Their Methods Of Use In An Animal Challenge Model” (priority 2022, published 2025).
Read-outs that look alike come from different tables or passages of the source.

Key:
virus stocks = test: Susceptibility of virus stocks to post-exposure prophylaxis drugs (VELA Diagnostics); details: all virus stocks, prior to animal testing
Excerpt: Virus stocks and biologic samples from infected animals were handled with biosafety level 3 operating procedures within a biosafety level 2 physical facility. […] This ensured that any research personnel, in case of accidental exposure to viruses or virus-exposed animals, could be successfully treated with standard post-exposure protocols if necessary.

[1] = test system: blood lymphocytes, NK cells, B cells, monocytes; test: Immune cell dynamics during dexamethasone administration (flow cytometry of blood); set-up: species or system owl monkeys; details: monkey, in vivo
Protocol: FIG. S8. […] In the top graph, the plasma viremia is reported for each of three animals over the course of the experiment. ND=no HIV-1 RNA detected. In the remainder of the rows, flow cytometry was performed on fresh Nancy Ma's owl monkey blood to enumerate the indicated cell types over the time course of infection. Antibodies: CD8 Invitrogen #MHCD0801; CD4 BD #550631; CD3 BD #563916 or #563918; CD20 BD #340941; CD16 BD #563892; CD14 BD #557923.
There are other data to support this. In a few animals, Applicants observe undetectable viremia after the acute phase, like elite controllers (one such animal shown in FIG. S29A). Set point viremia in these animals is below 80 HIV-1 RNA copies per mL, our assay LoQ.

[2] = set-up: species or system Nancy Ma's owl monkeys; details: monkey, in vivo

Excerpt for HIVnom: Two Nancy Ma's owl monkeys were intravenously injected with 1.3×10^6 infectious units of HIVnom1 and another two with 2.1×10^6 infectious units of HIVnom2 (FIG. 2a). Blood was drawn weekly for up to 30 weeks, with the “0” timepoint taken from the leg opposite to the site of virus injection five minutes after inoculation. Blood samples were sent to the University of Washington Clinical Retrovirology Laboratory (a human clinical diagnostics lab in Seattle, WA, USA) for determination of plasma viremia by RT-qPCR.
Treatment consisted of a once-daily subcutaneous injection. […] Study animals were maintained at 6 mg/kg for an additional 1-2 weeks.
Plasma vRNA quantification was performed by the commercial human diagnostic services at the University of Washington Retrovirology Laboratory (UWRL; Department of Laboratory Medicine, Seattle, WA, USA) using the Abbott RealTime HIV-1 RNA assay (Abbot #06L18-090) in conjunction with RT-qPCR instrumentation, practices, and procedures standard to that laboratory. Briefly, 500 μL of frozen EDTA owl monkey plasma were submitted for analysis and then diluted to 1 mL by the laboratory prior to processing. The range of vRNA quantitation for the assay is 40-10,000,000 HIV-1 genomes/mL when using undiluted samples, although the range of vRNA reported in this study was 80-20,000,000 HIV-1 genomes per mL due to the dilution required for the animal samples. The laboratory reported four possible outcomes: 1) virus detected and a vRNA quantification in HIV-1 genomes/mL; 2) virus detected but numbers were below the lower limit of quantification (<80 HIV-1 genomes/mL); 3) virus detected but the numbers were above the upper limit of quantification (>20 million HIV-1 genomes/mL); 4) virus not detected. The vRNA assay was performed for each animal prior to the start of the study, on the day of exposure (day 0), and on multiple days throughout the study (File S1).

Nc1nc(=O)n([C@@H]2CS[C@H](CO)O2)cc1F [emtricitabine]
susceptibility of virus stocks to drug (virus stocks): susceptible

Cc1nnc(C(=O)NC(C)(C)c2nc(C(=O)NCc3ccc(F)cc3)c(O)c(=O)n2C)o1 [raltegravir]
susceptibility of virus stocks to drug (virus stocks): susceptible

C[C@H](Cn1cnc2c(N)ncnc21)OCP(=O)(O)O [tenofovir]
susceptibility of virus stocks to drug (virus stocks): susceptible

Dexamethasone sodium phosphate
depletion of blood immune cells [1]: reversibly depleting blood lymphocytes, NK cells, and B cells, but not monocytes | hypokalemia [2]: mild hypokalemia noted to occur in some animals | peak rebound viremia upon dexamethasone treatment (HIVnom; animal BO): 92 HIVnom genomes per mL | peak rebound viremia upon dexamethasone treatment (HIVnom; animal JI): 258 HIVnom genomes per mL | peak rebound viremia upon dexamethasone treatment (HIVnom; animal KI): 612 HIVnom genomes per mL | peak rebound viremia upon dexamethasone treatment (HIVnom; animal RI): 18,220 HIVnom genomes per mL | virus rebound in blood during dexamethasone treatment (HIVnom; three of the four animals infected with HIVnom1 or HIVnom2, subcutaneous, several weeks): virus rebounded into the blood to detectable levels
